Laboratory results published in PubChem BioAssay AID1963828 (Molecular Pharmacology Branch, DTP, NCI, 2024).

Test system: 991263-137-R1-J2-PDC complex spheroid viability
Experiment: Anticancer human tumor 991263-137-R1-J2-PDC patient-derived colon adenocarcinoma cell line growth inhibition [POLQ]
Conditions: for IC50: curve of first compound; for viability, T/C: stronger effect = lower value
Protocol: Multicellular complex tumor spheroid response to Polymerase (POL) inhibitors (novobiocin, ART-558, RP6685) in combination with a variety of drugs and investigational agents in selected tumor cell lines
The POL inhibitors (novobiocin, ART-558, and RP6685) were evaluated both individually and in combination with standard of care and investigational anticancer small molecules within a complex spheroid model of solid tumors. . Complex spheroids include a stromal component modeled by human endothelial cells (HUVEC) and fibroblasts modeled by human mesenchymal stem cells (MSCs). The concentration ranges selected for each drug and investigational agent were based upon clinically achievable concentrations if the clinical Cmax of the agent was known.
Compounds. The drugs and investigational agents: novobiocin (NSC847541), ART-558 (NSC835418), RP-6685 (NSC848927), peposertib (NSC802822), ceralasertib (NSC780249), elimusertib (NSC800525), camonsertib (NSC841442), AZD-1390 (NSC803789), olaparib (NSC753686), talazoparib (NSC767125), rucaparib (NSC756644), sotorasib (NSC818433), MRTX-1133 (NSC836407), SN-38 (NSC673596), topotecan (NSC609699), epotoside (NSC141540), doxorubicin (NSC123127), gemcitabine (NSC613327), 5-fluorouracil (NSC19893), paclitaxel (NSC125973), vemurafenib (NSC761431), MSA-2 (NSC828583), SN-011 (NSC837082), adavosertib (NSC754352), prexasertib (NSC758257), carboplatin (NSC241240) and oxaliplatin (NSC266046), were obtained from the National Cancer Institute (NCI) Developmental Therapeutics Program Chemical Repository (21). The FDA-approved anticancer drug set is available from the Developmental Therapeutics Program at https://dtp.cancer.gov/organization/dscb/obtaining/. […] The stock solutions were prepared in dimethyl sulfoxide (DMSO, Sigma-Aldrich, St. Louis, MO, cat. D2650), except for the platinum compounds which were prepared in saline (Quality Biological, Gaithersburg, MD, cat. 114-055-101), at 800-fold the tested concentration and stored at -70 degrees C prior to their use. All drugs and investigational agents were tested over a range starting from a high concentration at or near the clinical Cmax and decreasing in half-log increments. If the clinical Cmax for an agent had not been determined, the highest concentration tested was 10 microM, except for SN-38, which was tested at a high concentration of 1 microM.
Cell Culture. All cells were maintained in an incubator at 37 degrees C and 5% CO2 with 95% humidity. The PDC lines were cultured according to standard operating procedures established by the NCI PDMR (https://pdmr.cancer.gov). Table 3 of the manuscript, lists the cell lines along with the number of the three cell types plated to form the mct-spheroids and media for tumor cell growth. After thawing, all PDC lines, except 997537-175-T-J1-PDC and 415267-285-R-J2-PDC, were cultured in Matrigel-coated flasks prepared with a working solution of 1X Ham's F-12 nutrient mix, without supplementation (Thermo Fisher Scientific, cat. 11765054), 100 U/mL penicillin-streptomycin (Thermo Fisher Scientific, cat. 15140122), and 2.5% Matrigel (Corning Inc., Corning, NY, cat. 354248) for the first three passages. The two PDC lines 997537-175-T-J1-PDC and 415267-285-R-J2-PDC were cultured on uncoated flasks. The 857933-349-R-J2-PDC line was cultured in 6C/Colon 1B media containing advanced DMEM/F-12 (Thermo Fisher Scientific, cat. 12634028), 10 mM HEPES (Thermo Fisher Scientific, cat. 15630080), 1X GlutaMAX supplement (Thermo Fisher Scientific, cat. 35050061), 0.1 mg/mL primocin (InvivoGen, San Diego, CA, cat. ant-pm-2), 10% defined fetal bovine serum, heat inactivated (HyClone Laboratories Inc., Logan, UT, cat. SH30070.03HI), 50% L-WRN conditioned media (ATCC, cat. CRL-3276), 1.25 mM N-Acetyl-L-cysteine (Sigma-Aldrich, cat. A9165), 10 mM nicotinamide (Sigma-Aldrich, cat. N0636), 1X B-27 supplement (Thermo Fisher Scientific, cat. 17504044), 1X N-2 supplement (Thermo Fisher Scientific, cat. […]

[1] = second compound 0.0316 µM, first compound 0.00316 µM
[2] = second compound 0.0316 µM, first compound 0.01 µM
[3] = second compound 0.0316 µM, first compound 0.0316 µM
[4] = second compound 0.0316 µM, first compound 0.1 µM
[5] = second compound 0.1 µM, first compound 0.00316 µM
[6] = second compound 0.1 µM, first compound 0.01 µM
[7] = second compound 0.1 µM, first compound 0.0316 µM
[8] = second compound 0.1 µM, first compound 0.1 µM
[9] = second compound 0.316 µM, first compound 0.00316 µM
[10] = second compound 0.316 µM, first compound 0.01 µM
[11] = second compound 0.316 µM, first compound 0.0316 µM
[12] = second compound 0.316 µM, first compound 0.1 µM
[13] = second compound 1 µM, first compound 0.00316 µM
[14] = second compound 1 µM, first compound 0.01 µM
[15] = second compound 1 µM, first compound 0.0316 µM
[16] = second compound 1 µM, first compound 0.1 µM
[17] = second compound 3.16 µM, first compound 0.00316 µM
[18] = second compound 3.16 µM, first compound 0.01 µM
[19] = second compound 3.16 µM, first compound 0.0316 µM
[20] = second compound 3.16 µM, first compound 0.1 µM
[21] = second compound 10 µM, first compound 0.00316 µM
[22] = second compound 10 µM, first compound 0.01 µM
[23] = second compound 10 µM, first compound 0.0316 µM
[24] = second compound 10 µM, first compound 0.1 µM
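Note: spheroids exposed to compounds for 7 days before readout.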
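Throughout, for viability, T/C: 100% = DMSO vehicle control viability.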

`CC[C@@]1(O)C(=O)OCc2c1cc1n(c2=O)Cc2cc3c(CN(C)C)c(O)ccc3nc2-1` + COC1C(OC(N)=O)C(O)C(Oc2ccc3c(O)c(NC(=O)c4ccc(O)c(CC=C(C)C)c4)c(=O)oc3c2C)OC1(C)C showed an IC50 (second compound 0.0316 µM) greater than 0.1 µM, an IC50 (second compound 0.1 µM) greater than 0.1 µM and an IC50 (second compound 0.316 µM) greater than 0.1 µM. It also gave an IC50 (second compound 1 µM) greater than 0.1 µM, an IC50 (second compound 3.16 µM) greater than 0.1 µM and an IC50 (second compound 10 µM) greater than 0.1 µM. For the same molecule, the viability, T/C (second compound 0.0316 µM, first compound 0.000316 µM) was 103%, the viability, T/C (second compound 0.0316 µM, first compound 0.001 µM) was 103% and the viability, T/C [1] was 106%. The viability, T/C [2] was 103%, the viability, T/C [3] was 100% and the viability, T/C [4] was 87.3%. For the same molecule, the viability, T/C (second compound 0.1 µM, first compound 0.000316 µM) was 105%, the viability, T/C (second compound 0.1 µM, first compound 0.001 µM) was 125% and the viability, T/C [5] was 98.3%. It also gave a viability, T/C [6] of 79.6%, a viability, T/C [7] of 86.4% and a viability, T/C [8] of 71.4%. It also gave a viability, T/C (second compound 0.316 µM, first compound 0.000316 µM) of 110%, a viability, T/C (second compound 0.316 µM, first compound 0.001 µM) of 110% and a viability, T/C [9] of 107%. The viability, T/C [10] was 100%, the viability, T/C [11] was 102% and the viability, T/C [12] was 84.5%. The viability, T/C (second compound 1 µM, first compound 0.000316 µM) was 82.4%, the viability, T/C (second compound 1 µM, first compound 0.001 µM) was 106% and the viability, T/C [13] was 97.7%. The viability, T/C [14] was 93.2%, the viability, T/C [15] was 75.7% and the viability, T/C [16] was 86.4%. For the same molecule, the viability, T/C (second compound 3.16 µM, first compound 0.000316 µM) was 93.9%, the viability, T/C (second compound 3.16 µM, first compound 0.001 µM) was 107% and the viability, T/C [17] was 104%. For the same molecule, the viability, T/C [18] was 112%, the viability, T/C [19] was 98.6% and the viability, T/C [20] was 87.7%. It also gave a viability, T/C (second compound 10 µM, first compound 0.000316 µM) of 92.8%, a viability, T/C (second compound 10 µM, first compound 0.001 µM) of 114% and a viability, T/C [21] of 99.1%. The viability, T/C [22] was 95.3%, the viability, T/C [23] was 110% and the viability, T/C [24] was 88.5%.

`CCc1c2c(nc3ccc(O)cc13)-c1cc3c(c(=O)n1C2)COC(=O)[C@]3(O)CC` + COC1C(OC(N)=O)C(O)C(Oc2ccc3c(O)c(NC(=O)c4ccc(O)c(CC=C(C)C)c4)c(=O)oc3c2C)OC1(C)C gave an IC50 (second compound 0.0316 µM) of 0.0691 µM, an IC50 (second compound 0.1 µM) of 0.0551 µM and an IC50 (second compound 0.316 µM) of 0.0592 µM. It also gave an IC50 (second compound 1 µM) of 0.0675 µM, an IC50 (second compound 3.16 µM) of 0.0999 µM and an IC50 (second compound 10 µM) of 0.0592 µM. It also gave a viability, T/C [1] of 102%, a viability, T/C [2] of 81% and a viability, T/C [3] of 54.5%. The viability, T/C [4] was 45.3%, the viability, T/C (second compound 0.0316 µM, first compound 0.316 µM) was 41.4% and the viability, T/C (second compound 0.0316 µM, first compound 1 µM) was 25.9%. It also gave a viability, T/C [5] of 106%, a viability, T/C [6] of 88.4% and a viability, T/C [7] of 52.9%. It also gave a viability, T/C [8] of 44%, a viability, T/C (second compound 0.1 µM, first compound 0.316 µM) of 29.1% and a viability, T/C (second compound 0.1 µM, first compound 1 µM) of 20.2%. It also gave a viability, T/C [9] of 83.3%, a viability, T/C [10] of 74.9% and a viability, T/C [11] of 47.8%. The viability, T/C [12] was 48.9%, the viability, T/C (second compound 0.316 µM, first compound 0.316 µM) was 34.9% and the viability, T/C (second compound 0.316 µM, first compound 1 µM) was 20.9%. It also gave a viability, T/C [13] of 92.2%, a viability, T/C [14] of 81% and a viability, T/C [15] of 62.2%. It also gave a viability, T/C [16] of 41.9%, a viability, T/C (second compound 1 µM, first compound 0.316 µM) of 33.6% and a viability, T/C (second compound 1 µM, first compound 1 µM) of 22.6%. For the same molecule, the viability, T/C [17] was 84.1%, the viability, T/C [18] was 66.6% and the viability, T/C [19] was 61.1%. For the same molecule, the viability, T/C [20] was 54.3%, the viability, T/C (second compound 3.16 µM, first compound 0.316 µM) was 37.1% and the viability, T/C (second compound 3.16 µM, first compound 1 µM) was 19.2%. For the same molecule, the viability, T/C [21] was 104%, the viability, T/C [22] was 82.3% and the viability, T/C [23] was 53.3%. The viability, T/C [24] was 46.1%, the viability, T/C (second compound 10 µM, first compound 0.316 µM) was 30.6% and the viability, T/C (second compound 10 µM, first compound 1 µM) was 19.9%.
